Read-outs that look alike come from different tables or passages of the source.
Tests used:
[1] = tested on: MCF-7 cells; assay: MTT cytotoxicity assay in MCF-7 cells; format: cell-based, human; conditions: means ± sd, n = 3
Procedure: The in vitro anticancer activity of the designed coumarin-thiosemicarbazones and coumarin-thiazolidine-4-one hybrids against MCF-7 cells was tested using the MTT assay, and 5-fluorouracil (5-FU) was used as the reference drug. The tested compounds were used in different concentrations, and cell survival was determined after incubation for 48 h as reported. The cytotoxic activity is represented in Table 1 as IC50 (µM) values.
(§1) MCF-7 breast cancer cell line (ATCC® HTB-22™) plus non-tumorigenic epithelial cell line (MCF 10, ATCC® CRL-10317™) were supplied from VACSERA (Cairo, Egypt) and cultured in Dulbecco’s Modified Eagle Medium (Invitrogen-Life Technologies, Carlsbad, CA, USA) with 1% antibiotic solution (streptomycin–penicillin) plus 10% fetal bovine serum (Hyclone) in a 5% (v/v) humidified CO2 incubator at 37 °C.
Firstly, cells were kept in a humidified atmosphere (37 °C, 24 h), and then incubated with serial concentrations of the tested compounds. After 48 h, the medium was aspirated, and then cells were incubated with 5% MTT solution (M-5655; Sigma Aldrich, St. Louis, MO USA) (200 µL/well, 2 h), allowing the dye to metabolize into the colored insoluble formazan complex that was then dissolved in the appropriate solubilization solution (M-8910) (200 µL/well), for 30 min with gentle mixing at room temperature. The UV absorbance was measured using a microplate reader (570 nm), and cell viability was determined with respect to untreated control cells. […] The values were means ± sd; n = 3.

[2] = tested on: MCF-7 cells; assay: Cell cycle analysis by flow cytometry (propidium iodide); format: cell-based, human; conditions: MCF-7, treated at IC50, 48 h
Procedure: VIIb-treated cells were subjected to cell cycle phase distribution analysis as well as apoptosis rates determination by flow cytometric analysis in MCF-7 cells, as reported.
Control and VIIb-treated (IC50 µM, 48 h) MCF-7 cells were harvested and then subjected to cell cycle analysis by flow cytometry.
Cell cycle analysis and apoptosis rates following VIIb treatment were investigated using a Propidium Iodide Flow Cytometry Kit (ab139418; Abcam, Cambridge, UK) and Annexin V-FITC apoptosis kit (Catalog: K101-25; BioVision Research Products, San Francisco, CA, USA), respectively, following the manufacturer’s instructions as stated by a previous study.

[3] = tested on: PI3K β; conditions: Figure 1, pan PI3K inhibitor; cited from earlier work
[4] = tested on: PI3K δ; conditions: cited from earlier work
[5] = tested on: PI3K α; conditions: cited from earlier work
[6] = tested on: MCF 10 non-tumorigenic epithelial cell line; assay: MTT assay in non-cancerous epithelial cells (MCF 10); format: cell-based; conditions: for IC50: Homo sapiens, MCF10, MTT assay, non-cancerous epithelial cells, means ± sd, n = 3; for Selectivity Index MCF-10/MCF-7: ratio of IC50 MCF-10 to IC50 MCF-7
Procedure: as §1
Firstly, cells were kept in a humidified atmosphere (37 °C, 24 h), and then incubated with serial concentrations of the tested compounds. After 48 h, the medium was aspirated, and then cells were incubated with 5% MTT solution (M-5655; Sigma Aldrich, St. Louis, MO USA) (200 µL/well, 2 h), allowing the dye to metabolize into the colored insoluble formazan complex that was then dissolved in the appropriate solubilization solution (M-8910) (200 µL/well), for 30 min with gentle mixing at room temperature. The UV absorbance was measured using a microplate reader (570 nm), and cell viability was determined with respect to untreated control cells.

[7] = biological target: T1, Akt-1 (Homo sapiens, UniProt P31749); assay: Akt Kinase Activity assay kit; format: biochemical; conditions: means ± sd, n = 3; read-out: IC50 (µM) Akt-1 Isoform
T1 construct: purchased Abcam ab139436
T1 sequence (P31749 whole entry, species assumed, canonical isoform): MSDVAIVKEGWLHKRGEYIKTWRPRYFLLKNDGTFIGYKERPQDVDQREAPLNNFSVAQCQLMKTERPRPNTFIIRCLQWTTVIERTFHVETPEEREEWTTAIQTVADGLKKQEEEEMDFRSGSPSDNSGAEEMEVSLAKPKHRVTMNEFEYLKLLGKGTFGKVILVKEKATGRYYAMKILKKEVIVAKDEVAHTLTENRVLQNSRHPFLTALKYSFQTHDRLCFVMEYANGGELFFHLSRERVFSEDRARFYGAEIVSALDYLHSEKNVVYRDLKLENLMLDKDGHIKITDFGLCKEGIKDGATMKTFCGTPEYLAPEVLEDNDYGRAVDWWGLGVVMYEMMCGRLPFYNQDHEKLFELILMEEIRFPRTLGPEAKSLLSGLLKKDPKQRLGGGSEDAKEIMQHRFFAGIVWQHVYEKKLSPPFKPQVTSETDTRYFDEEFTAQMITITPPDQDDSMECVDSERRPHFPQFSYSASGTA
Text: Accumulating evidence highlighted that PI3K signaling pathway upregulation is highly implicated in breast cancer development and disease progression as well as resistance to hormones and cytotoxic therapy. Therefore, it is essential to elucidate the effect of the novel compound, VIIb, on the PI3K/Akt signaling pathway by using in vitro PI3K class 1A enzyme inhibition assay conducted on PI3K-α and PI3K-γ isoforms as well as an Akt-1 enzyme inhibition assay. […] Furthermore, targeting the PI3K-γ isoform in breast cancer could contribute to enhancing the anti-tumor immunity.
The in vitro inhibition of PI3K and Akt kinase activities by VIIb was assessed using a PI3Kα (p110α/p85) assay kit (Catalog #79781; BPS Bioscience, Inc, San Diego, CA, USA), PI3Kγ (p110γ/PIK3R5) assay kit (Catalog #79803; BPS Bioscience, Inc, San Diego, CA, USA), and Akt Kinase Activity assay kit (ab139436; Abcam, Cambridge, UK) following the manufacturer’s instructions as described previously. The results were expressed as IC50 values using dose–response curves and linear regression equations. LY294002 compound was taken as the reference compound. The values were means ± sd; n = 3.

[8] = tested on: Akt; conditions: Figure 1, reported Akt inhibitor; cited from earlier work

`CCOc1ccc2c(C)cc(=O)oc2c1C(C)=NN=C1SCC(=O)N1C` (mixture of isomers) [VIIIa, (Z/E)-2-{[1-(7-Ethoxy-4-methylcoumarin-8-yl)-ethylidene]-hydrazono}-3-methyl-thiazolidin-4-one] gave an IC50 ([1]; 48 h) of 20.3 ± 1.06 µM.

For `CCOc1ccc2c(C)cc(=O)oc2c1C(C)=NN=C1SCC(=O)N1CC` (mixture of isomers) [VIIIb, (Z/E)-2-{[1-(7-Ethoxy-4-methylcoumarin-8-yl)-ethylidene]-hydrazono}-3-ethyl-thiazolidin-4-one], the IC50 ([1]; 48 h) was 57.3 ± 2.99 µM, the “DNA Content % Pre G1” value ([2]; control 1.55) was 35.25% and the “DNA Content % G2/M” value ([2]; control 9.71) was 5.59%. The “DNA Content % S” value ([2]; control 36.58) was 46.02% and the “DNA Content % G0/G1” value ([2]; control 53.71) was 48.39%.

`C=CCN1C(=O)CSC1=NN=C(C)c1c(OCC)ccc2c(C)cc(=O)oc12` (mixture of isomers) [VIIIc, (Z/E)-3-Allyl-2-{[1-(7-ethoxy-4-methylcoumarin-8-yl)-ethylidene]-hydrazono}-thiazolidin-4-one] gave an IC50 ([1]; 48 h) of 4.95 ± 0.26 µM.

Compound `CCOc1ccc2c(C)cc(=O)oc2c1C(C)=NN=C1SCC(=O)N1Cc1ccccc1` (mixture of isomers) [VIIId, (Z/E)-3-Benzyl-2-{[1-(7-ethoxy-4-methylcoumarin-8-yl)-ethylidene]-hydrazono}-thiazolidin-4-one] has an IC50 ([1]; 48 h) of 79.9 ± 4.18 µM.

`CCOc1ccc2c(C)cc(=O)oc2c1C(C)=NN=C1SCC(=O)N1C(=O)c1ccccc1` (mixture of isomers) [VIIIe, (Z/E)-3-Benzoyl-2-{[1-(7-ethoxy-4-methylcoumarin-8-yl)-ethylidene]-hydrazono}-thiazolidin-4-one] showed an IC50 ([1]; 48 h) of 26.4 ± 1.38 µM.

For `COc1ccc(-c2nc(N/N=C/c3c[nH]c4ccccc34)nc(N3CCOCC3)c2C#N)cc1` [Compound 1], the IC50 [3] is given as 0.94 µM, the IC50 ([4]; Figure 1, pan PI3K inhibitor) is given as 0.64 µM and the IC50 ([5]; Figure 1, pan PI3K inhibitor, read-out: IC50 (α)) is given as 0.96 µM.

In the case of `O=c1[nH]cc(F)c(=O)[nH]1` [Compound 5-FU, 5-fluorouracil, reference compound], the IC50 [6] is reported as 36.2 ± 1.89 µM, the “Selectivity Index MCF-10/MCF-7” value [6] is reported as 1.30 and the IC50 ([1]; Homo sapiens, MCF7, 48 h) is reported as 27.8 ± 1.41 µM.

For `O=c1cc(N2CCOCC2)oc2c(-c3ccccc3)cccc12` [LY294002, reference compound], the IC50 [7] was 3.53 ± 0.18 µM.

In the case of `NC1(c2ccc(-c3nc4ccn5c(=O)[nH]nc5c4cc3-c3ccccc3)cc2)CCC1` [MK-2206], the IC50 [8] is listed as 0.008 µM.

With `CCOc1ccc2c(C)cc(=O)oc2c1/C(C)=N\NC(=S)NC` [VIa, (Z/E)-1(1-(7-ethoxy-4-methylcoumarin)ethylidene)-4-methyl-thiosemicarbazone] the melting point was 202 to 204 °C and the IC50 ([1]; Homo sapiens, MCF7, 48 h) was 11.1 ± 0.58 µM.

Compound `CCNC(=S)N/N=C(/C)c1c(OCC)ccc2c(C)cc(=O)oc12` [VIb, (Z/E)-1(1-(7-ethoxy-4-methylcoumarin)ethylidene)-4-ethyl-thiosemicarbazone] has a melting point of 183 °C and an IC50 ([1]; Homo sapiens, MCF7, 48 h) of 38.7 ± 2.09 µM.

`C=CCNC(=S)N/N=C(/C)c1c(OCC)ccc2c(C)cc(=O)oc12` [VIc, (Z/E)-1(1-(7-ethoxy-4-methylcoumarin)ethylidene)-4-allyl-thiosemicarbazone] gave a melting point of 100 to 102 °C and an IC50 ([1]; Homo sapiens, MCF7, 48 h) of 2.72 ± 0.13 µM.

`CCOc1ccc2c(C)cc(=O)oc2c1/C(C)=N\NC(=S)NCc1ccccc1` [VId, (Z/E)-1(1-(7-ethoxy-4-methylcoumarin)ethylidene)-4-benzyl-thiosemicarbazone] gave a melting point of 140 to 143 °C and an IC50 ([1]; Homo sapiens, MCF7, 48 h) of 2.61 ± 0.14 µM.

`CCOc1ccc2c(C)cc(=O)oc2c1/C(C)=N\NC(=S)NC(=O)c1ccccc1` [VIe, (Z/E)-1(1-(7-ethoxy-4-methylcoumarin)ethylidene)-4-benzoyl-thiosemicarbazone] gave a melting point of 220 to 223 °C and an IC50 ([1]; Homo sapiens, MCF7, 48 h) of 43.1 ± 2.25 µM.

With `CCOc1ccc2c(C)cc(=O)oc2c1/C(C)=N\NC(=S)Nc1ccc(OC)cc1` [VIf] the IC50 [6] was 20.1 ± 1.05 µM, the “Selectivity Index MCF-10/MCF-7” value [6] was 16.61 and the IC50 ([1]; Homo sapiens, MCF7, 48 h) was 1.21 ± 0.06 µM.

`C/C(=N/NC(=S)NCc1ccccc1)c1c(O)ccc2c(C)cc(=O)oc12` [Va] showed an IC50 ([1]; Homo sapiens, MCF7, 48 h) of 5.13 ± 0.28 µM.

With `C/C(=N/NC(=S)NC(=O)c1ccccc1)c1c(O)ccc2c(C)cc(=O)oc12` [Vb] the IC50 ([1]; Homo sapiens, MCF7, 48 h) was 47.3 ± 2.47 µM.
